Data taken from US10980805B2, “Aza-pyridone compounds and uses thereof” (Janssen BioPharma, Inc., priority 2013, dated 2021).

Tests used:
[1] = tested on: Influenza strain A549_A/WSN/33 (H1N1); assay: Influenza antiviral assay (neuraminidase fluorescence readout); assay type: cell-based, Influenza virus; settings: Influenza A virus, read-out: % Inhibition (EC50 class, Table 2)
[2] = target: Full length EN PA (influenza PA endonuclease) (Influenza A virus, UniProt P15659); assay: EN PA FRET inhibition assay; assay type: biochemical; settings: FRET probe, mean of a minimum of two independent experiments, read-out: Potency (IC50 class, Table 3)

Structure (SMILES)	EC50 [1] [µM]	IC50 [2] [µM]
O=C1c2c(O)c(=O)cnn2[C@@H](C(c2cccc(F)c2)c2cccc(F)c2)CN1Cc1ccccc1 [Compound 75-A]	< 20	< 0.25
CC(C)N1CC(C(c2ccccc2)c2cccc(-c3ccccc3)c2)n2ncc(=O)c(O)c2C1=O (centres unmarked) [Compound 78]	< 20	< 0.25
CCN1C[C@H](C(c2ccccc2)c2cccc(Cl)c2)n2ncc(=O)c(OC(=O)c3cccnc3)c2C1=O (some centres unmarked) [Compound 79-A]	< 20	< 0.25
CCCN1C[C@H](C(c2cccc(F)c2)c2cccc(F)c2)n2ncc(=O)c(OC(=O)C(C)C)c2C1=O [Compound 80-A]	< 20	< 0.25
CN1C[C@H](C2c3ccc(F)cc3CCc3c(F)cccc32)n2ncc(=O)c(O)c2C1=O (some centres unmarked) [Compound 81-A]	< 20	< 0.25
CN1C[C@@H](C2c3ccc(F)cc3CCc3c(F)cccc32)n2ncc(=O)c(O)c2C1=O (some centres unmarked) [Compound 81-B]	20 to 100	< 0.25
CN1C[C@H](C2c3cccc(F)c3CCc3c(F)cccc32)n2ncc(=O)c(O)c2C1=O [Compound 83-A]	< 20	< 0.25
CN1C[C@@H](C2c3cccc(F)c3CCc3c(F)cccc32)n2ncc(=O)c(O)c2C1=O [Compound 83-B]	20 to 100	0.25 to 1
CN1CC(C2c3cccc(F)c3CCc3c(F)cccc32)n2ncc(=O)c(O)c2C1=O (centres unmarked) [Compound 83]	< 20	< 0.25
CCCN1C[C@H](C(c2cccc(Cl)c2)c2cccc(Cl)c2)n2ncc(=O)c(O)c2C1=O [Compound 84-A]	< 20	< 0.25
CCOc1c2n(ncc1=O)[C@@H](C(c1cccc(F)c1)c1cccc(F)c1)CN(CC)C2=O [Compound 85-A]	20 to 100	≥ 1
CC(C)CN1C[C@H](C(c2cccc(F)c2)c2cccc(F)c2)n2ncc(=O)c(O)c2C1=O [Compound 86-A]	< 20	< 0.25
CCCCN1C[C@H](C(c2cccc(F)c2)c2cccc(F)c2)n2ncc(=O)c(O)c2C1=O [Compound 87-A]	< 20	< 0.25
CCN1C[C@H](C(c2cccc(F)c2)c2cccc(F)c2)n2ncc(=O)c(OCOC(=O)Oc3ccc([N+](=O)[O-])cc3C)c2C1=O [Compound 88-A]	< 20	0.25 to 1
CN1C[C@H](C2c3ccc(F)cc3CCc3cc(F)ccc32)n2ncc(=O)c(O)c2C1=O [Compound 89-A]	< 20	< 0.25
CN1C[C@@H](C2c3ccc(F)cc3CCc3cc(F)ccc32)n2ncc(=O)c(O)c2C1=O [Compound 89-B]	< 20	< 0.25
CN1CC(C2c3ccc(F)cc3CCc3cc(F)ccc32)n2ncc(=O)c(O)c2C1=O (centres unmarked) [Compound 89]	< 20	< 0.25
COCC(C)(C)N1CC(C(c2ccccc2)c2ccccc2)n2ncc(=O)c(O)c2C1=O (centres unmarked) [Compound 90]	< 20	< 0.25
CCN1C[C@H](C(c2cccc(F)c2)c2cccc(F)c2)n2ncc(=O)c(OCOC(=O)NCCN3CCOCC3)c2C1=O [Compound 91-A]	20 to 100	≥ 1
O=C1c2c(O)c(=O)cnn2[C@@H](C(c2cccc(F)c2)c2cccc(F)c2)CN1CCO [Compound 92-A]	< 20	< 0.25
O=C1c2c(O)c(=O)cnn2[C@@H](C(c2cccc(F)c2)c2cccc(F)c2)CN1CC1CC1 [Compound 93-A]	< 20	< 0.25

Structure (SMILES)	EC50 [1] [µM]	IC50 [2] [µM]
CCN1C[C@H](C(c2cccc(F)c2)c2cccc(F)c2)n2ncc(=O)c(OCOC(=O)NC)c2C1=O [Compound 94-A]	20 to 100	≥ 1
CCN1C[C@H](C(c2cccc(F)c2)c2cccc(F)c2)n2ncc(=O)c(OCOC(=O)[C@@H](N)C(C)C)c2C1=O [Compound 95-A]	< 20	< 0.25
CC(C)[C@H](N)C(=O)OCOc1c2n(ncc1=O)[C@@H](C(c1ccccc1)c1ccccc1)CN(C(C)C)C2=O [Compound 96-A]	< 20	< 0.25
O=C1c2c(O)c(=O)cnn2[C@@H](C(c2ccccc2)c2ccccc2)CN1CC1CC1 [Compound 97-A]	< 20	< 0.25
CC(C)CN1C[C@H](C(c2ccccc2)c2ccccc2)n2ncc(=O)c(O)c2C1=O [Compound 98-A]	< 20	< 0.25
CN1CC(C(c2ccccc2)c2cccc(CC#N)c2)n2ncc(=O)c(O)c2C1=O (centres unmarked) [Compound 99]	20 to 100	< 0.25
CN1CC(C(c2ccccc2)c2cccc(C#N)c2)n2ncc(=O)c(O)c2C1=O (centres unmarked) [Compound 100]	< 20	< 0.25
CN1CC(C(c2ccccc2)c2cccc(CC(N)=O)c2)n2ncc(=O)c(O)c2C1=O (centres unmarked) [Compound 101]	20 to 100	< 0.25
CN1CC(C(c2cccc(C#N)c2)c2cccc(C#N)c2)n2ncc(=O)c(O)c2C1=O (centres unmarked) [Compound 102]	20 to 100	< 0.25
CN1CC(C(Cc2ccccc2)c2ccccc2)n2ncc(=O)c(O)c2C1=O (centres unmarked) [Compound 103]	20 to 100	< 0.25
CN1CC(C(c2ccccc2)c2cccc(Cc3cnn(C)c3)c2)n2ncc(=O)c(O)c2C1=O (centres unmarked) [Compound 104]	< 20	< 0.25
CN1C[C@H]([C@@H](c2ccccc2)c2cccc(OC3CC3)c2)n2ncc(=O)c(O)c2C1=O [Compound 105-A]	< 20	< 0.25
CN1C[C@H]([C@H](c2ccccc2)c2cccc(OC3CC3)c2)n2ncc(=O)c(O)c2C1=O [Compound 105-B]	< 20	< 0.25
CN1C[C@@H]([C@H](c2ccccc2)c2cccc(OC3CC3)c2)n2ncc(=O)c(O)c2C1=O [Compound 105-C]	< 20	0.25 to 1
CN1C[C@@H]([C@@H](c2ccccc2)c2cccc(OC3CC3)c2)n2ncc(=O)c(O)c2C1=O [Compound 105-D]	20 to 100	≥ 1
CN1CC(C(c2ccccc2)c2cccc(OC3CC3)c2)n2ncc(=O)c(O)c2C1=O (centres unmarked) [Compound 105]	20 to 100	< 0.25
CC(N)C(=O)OCOc1c2n(ncc1=O)[C@@H](C(c1ccccc1)c1ccccc1)CN(C(C)C)C2=O (some centres unmarked) [Compound 106-A]	< 20	< 0.25
CN1C[C@H]([C@@H](c2ccccc2)n2cnc(I)c2)n2ncc(=O)c(O)c2C1=O [Compound 107-A]	20 to 100	< 0.25
CN1C[C@H]([C@H](c2ccccc2)n2cnc(I)c2)n2ncc(=O)c(O)c2C1=O [Compound 107-B]	20 to 100	< 0.25
CN1C[C@H]([C@@H](c2ccccc2)n2ccnc2)n2ncc(=O)c(O)c2C1=O [Compound 108-A]	20 to 100	< 0.25
CN1C[C@H]([C@H](c2ccccc2)n2ccnc2)n2ncc(=O)c(O)c2C1=O [Compound 108-B]	20 to 100	< 0.25

Structure (SMILES)	EC50 [1] [µM]	IC50 [2] [µM]
C#Cc1ccn([C@H](c2ccccc2)[C@@H]2CN(C)C(=O)c3c(O)c(=O)cnn32)n1 [Compound 109-A]	< 20	< 0.25
C#Cc1ccn([C@@H](c2ccccc2)[C@H]2CN(C)C(=O)c3c(O)c(=O)cnn32)n1 [Compound 109-B]	< 20	< 0.25
C#Cc1ccn([C@H](c2ccccc2)[C@H]2CN(C)C(=O)c3c(O)c(=O)cnn32)n1 [Compound 109-C]	< 20	< 0.25
C#Cc1ccn([C@@H](c2ccccc2)[C@@H]2CN(C)C(=O)c3c(O)c(=O)cnn32)n1 [Compound 109-D]	< 20	0.25 to 1
C#Cc1ccn(C(c2ccccc2)C2CN(C)C(=O)c3c(O)c(=O)cnn32)n1 (centres unmarked) [Compound 109]	< 20	< 0.25
C[C@@H](N1C[C@H](C(c2ccccc2)c2ccccc2)n2ncc(=O)c(O)c2C1=O)C(F)(F)F [Compound 110-A]	< 20	< 0.25
CC#Cc1cn(C(c2ccccc2)C2CN(C)C(=O)c3c(O)c(=O)cnn32)cn1 (centres unmarked) [Compound 111]	≥ 100	0.25 to 1
CC(C)N1C[C@H](C(c2ccccc2)c2ccccc2)n2ncc(=O)c(OC(=O)C3CCCCC3)c2C1=O [Compound 112]	< 20	0.25 to 1
CC(C)N1C[C@H](C(c2ccccc2)c2ccccc2)n2ncc(=O)c(OCOC(=O)C(C)(C)N)c2C1=O [Compound 113-A]	< 20	< 0.25
CC(C)N1C[C@@H](C(c2ccccc2)c2ccccc2)n2ncc(=O)c(OCOC(=O)C(C)(C)N)c2C1=O [Compound 113-B]	20 to 100	0.25 to 1
CC(C)C(=O)Oc1c2n(ncc1=O)[C@H](C1c3cccc(F)c3CCc3c(F)cccc31)CN(C(C)C)C2=O [Compound 114-B]	< 20	≥ 1
CC(C)C(=O)Oc1c2n(ncc1=O)C(C1c3cccc(F)c3CCc3c(F)cccc31)CN(C(C)C)C2=O (centres unmarked) [Compound 114]	< 20	< 0.25
CC#Cc1ccn([C@H](c2ccccc2)[C@@H]2CN(C)C(=O)c3c(O)c(=O)cnn32)n1 [Compound 115-A]	< 20	≥ 1
CC#Cc1ccn([C@@H](c2ccccc2)[C@H]2CN(C)C(=O)c3c(O)c(=O)cnn32)n1 [Compound 115-B]	< 20	< 0.25
CC#Cc1ccn([C@H](c2ccccc2)[C@H]2CN(C)C(=O)c3c(O)c(=O)cnn32)n1 [Compound 115-C]	< 20	< 0.25
CC#Cc1ccn([C@@H](c2ccccc2)[C@@H]2CN(C)C(=O)c3c(O)c(=O)cnn32)n1 [Compound 115-D]	< 20	≥ 1
CC#Cc1ccn(C(c2ccccc2)C2CN(C)C(=O)c3c(O)c(=O)cnn32)n1 (centres unmarked) [Compound 115]	< 20	< 0.25
C#Cc1cn(C(c2ccccc2)C2CN(C)C(=O)c3c(O)c(=O)cnn32)cn1 (centres unmarked) [Compound 116]	< 20	< 0.25
CCC#Cc1ccn(C(c2ccccc2)C2CN(C)C(=O)c3c(O)c(=O)cnn32)n1 (centres unmarked) [Compound 117]	< 20	< 0.25
